Assay results as given in patent US8541462B2, “Tetrahydrocarbazole derivatives as ligands of G-protein coupled receptors” (AEterna Zentaris GmbH, priority 2007, dated 2013).

Biological target: T1, LHRH receptor (endogenous GnRH receptor of alpha T3-1 cell line) (Mus musculus, UniProt Q01776)
T1 construct: alpha T3-1 cell line with endogenous GnRH receptor expression; endogenous in cells; host or cells: alpha T3-1 cells (intact cell suspension)
T1 sequence (Q01776 1-327): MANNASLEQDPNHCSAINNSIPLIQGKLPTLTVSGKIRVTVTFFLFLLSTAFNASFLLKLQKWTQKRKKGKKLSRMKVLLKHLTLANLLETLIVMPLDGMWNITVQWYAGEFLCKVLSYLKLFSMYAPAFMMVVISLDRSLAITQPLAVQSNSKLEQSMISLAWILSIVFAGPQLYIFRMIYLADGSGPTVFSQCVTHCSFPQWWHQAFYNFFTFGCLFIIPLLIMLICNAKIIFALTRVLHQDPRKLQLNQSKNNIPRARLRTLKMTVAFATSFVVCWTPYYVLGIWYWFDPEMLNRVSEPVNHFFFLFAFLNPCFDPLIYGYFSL
Assay: LHRH-receptor binding assay (displacement of [125I] cetrorelix on alpha T3-1 cells)
Conditions: WO 2006/005484-substance 75 = 100%
Protocol: For LHRH receptor binding studies, an assay system using alpha T3-1 cell line with endogenous GnRH receptor expression was employed (Windle et al., Mol. Endocrinol. 1990, 4(4): 597-603).
Iodinated cetrorelix was used as a tracer with about 80% of peptide capable of specific receptor association.
For displacement binding assays, the cells were incubated with approximately 200 pM [^125l] cetrorelix and different concentrations of unlabeled test compounds as competitor. The cell suspension in binding medium was layered on top of silicon/paraffin oil, incubated for 60 min at 37° C. and separated by centrifugation. The tips of the tubes containing the cell pellet were cut off, subsequently cell pellet and supernatant were analyzed by gamma-radiation analysis.
The amount of unspecific binding was determined by including unlabeled cetrorelix at 1 μM final concentration and was typically ≦10% of total binding. IC50 values were calculated by using the GraphPad Prism analysis program (GraphPad Software Inc.).

Normalized Affinity [%] | Structure (SMILES)
247 | CCC(C)[C@H](NC(=O)Cc1ccccc1F)C(=O)N[C@]1(C(=O)N[C@H](C(=S)NCc2ccncc2)C(C)CC)CCc2[nH]c3c(C(F)(F)F)cccc3c2C1 (stereo partly drawn) [Compound 60, (R)-3-{(S)-2-[2-(2-Fluoro-phenyl)-acetylamino]-3-methyl-pentanoylamino}-8-trifluoromethyl-2,3,4,9-tetrahydro-1H-carbazole-3-carboxylic acid {(S)-2-methyl-1-[(pyridin-4-ylmethyl)-thiocarbamoyl]-butyl}-amide]
411 | CCC(C)[C@H](NC(=O)Cc1ccccc1F)C(=O)N[C@]1(C(=O)N[C@H](C(=O)Nc2ccc(OC)cc2O)C(C)CC)CCc2[nH]c3c(C(F)(F)F)cccc3c2C1 (stereo partly drawn) [Compound 71, (R)-3-{(S)-2-[2-(2-Fluoro-phenyl)-acetylamino]-3-methyl-pentanoylamino}-8-trifluoromethyl-2,3,4,9-tetrahydro-1H-carbazole-3-carboxylic acid [(S)-1-(2-hydroxy-4-methoxy-phenylcarbarnoyl)-2-methyl-butyl]-amide]
285 | CCC(C)[C@H](NC(=O)Cc1ccccc1F)C(=O)N[C@]1(C(=O)N[C@H](C(=S)NCc2nnc(C)o2)C(C)CC)CCc2[nH]c3c(C(F)(F)F)cccc3c2C1 (stereo partly drawn) [compound 118, (R)-3-{(S)-2-[2-(2-Fluoro-phenyl)-acetylamino]-3-methyl-pentanoylamino}-8-trifluoromethyl-2,3,4,9-tetrahydro-1H-carbazole-3-carboxylic acid {(S)-2-methyl-1-[(5-methyl-[1,3,4]oxadiazol-2-ylmethyl)-thiocarbamoyl]-butyl}-amide]
370 | CCC(C)[C@H](NC(=O)Cc1ccccc1F)C(=O)N[C@]1(C(=O)N[C@H](C(=O)Nc2nnn(C(C)(C)C)n2)C(C)CC)CCc2[nH]c3c(C(F)(F)F)cccc3c2C1 (stereo partly drawn) [compound 178, (R)-3-{(S)-2-[2-(2-Fluoro-phenyl)-acetylamino]-3-methyl-pentanoylamino}-8-trifluoromethyl-2,3,4,9-tetrahydro-1H-carbazole-3-carboxylic acid [(S)-1-(2-tert-butyl-2H-tetrazol-5-ylcarbamoyl)-2-methyl-butyl]-amide]

Tested on: not listed separately
Assay: Metabolic stability testing in liver microsomes
Assay type: in vitro ADME
Conditions: mixed-gender human liver microsomes, 1 mg microsomal protein/mL, initial concentration 10 μM, 60 minutes at 37° C.; WO 2006/005484-substance 7 = 100%
Protocol: Subcellular fractions of different tissues can be prepared easily by ultracentrifugation. Most commonly these are prepared from the liver of animals and human donors to gain information about the potential hepatic clearance of compounds (first-pass elimination of drugs). Human or animal (e.g. dog, mouse, rat) subcellular fraction like liver microsomes, or possibly the fraction called S9 have therefore become a very commonly and widely used as an in vitro model to investigate mainly cytochrome P450 dependent phase I (but also phase II) metabolism that takes place in the liver.
In order to reflect the standard proportion of the enzymes in human and animal livers, liver microsomes are usually pooled from a number of […] of the same sex (or mixed-gender). By supplementing the liver microsomes with relevant cofactors and other components it is possible to investigate and distinguish between CYPs, flavin-containing monooxygenase (FMO) and UDP-glucuronosyltransferase (UGT) activities.
Selected compounds of the invention were tested for their stability in mixed-gender human liver microsomes and compared to pertinent prior art compounds.
Under the test conditions applied (1 mg microsomal protein/mL, initial concentration of 10 μM, and incubation for 60 minutes at 37° C.) the following normalized results were obtained.

Structure (SMILES) | Normalized microsomal stability [%]
CCC(C)[C@H](NC(=O)Cc1ccccc1F)C(=O)N[C@]1(C(=O)N[C@H](CNC(=S)NCc2ccncc2)C(C)CC)CCc2[nH]c3c(C(F)(F)F)cccc3c2C1 (stereo partly drawn) [compound 205, (R)-3-{(S)-2-[2-(2-Fluoro-phenyl)-acetylamino]-3-methyl-pentanoylamino}-8-trifluoromethyl-2,3,4,9-tetrahydro-1H-carbazole-3-carboxylic acid [(S)-2-methyl-1-(3-pyridin-4-ylmethyl-thioureidomethyl)-butyl]-amide] | 800
CCC(C)[C@H](NC(=O)Cc1cccnc1)C(=O)N[C@]1(C(=O)N[C@H](C(N)=S)C(C)CC)CCc2[nH]c3c(C(F)(F)F)cccc3c2C1 (stereo partly drawn) [compound 230, (R)-3-[(S)-3-Methyl-2-(2-pyridin-3-yl-acetylamino)-pentanoylamino]-8-trifluoromethyl-2,3,4,9-tetrahydro-1H-carbazole-3-carboxylic acid ((S)-2-methyl-1-thiocarbamoyl-butyl)-amide] | 1948
CCC(C)[C@H](NC(=O)Cc1ccncc1)C(=O)N[C@]1(C(=O)N[C@H](C(N)=S)C(C)CC)CCc2[nH]c3c(C(F)(F)F)cccc3c2C1 (stereo partly drawn) [compound 236, (R)-3-[(S)-3-Methyl-2-(2-pyridin-4-yl-acetylamino)-pentanoylamino]-8-trifluoromethyl-2,3,4,9-tetrahydro-1H-carbazole-3-carboxylic acid ((S)-2-methyl-1-thiocarbamoyl-butyl)-amide] | 1328
CCC(C)[C@H](NC(=O)NCc1ccc(OC)cc1)C(=O)N[C@]1(C(=O)N[C@H](C(N)=S)C(C)CC)CCc2[nH]c3c(C(F)(F)F)cccc3c2C1 (stereo partly drawn) [compound 239, (R)-3-{(S)-2-[3-(4-Methoxy-benzyl)-ureido]-3-methyl-pentanoylamino}-8-trifluoromethyl-2,3,4,9-tetrahydro-1H-carbazole-3-carboxylic acid ((S)-2-methyl-1-thiocarbamoyl-butyl)-amide] | 307
CCC(C)[C@H](NC(=O)NCc1ccccc1F)C(=O)N[C@]1(C(=O)N[C@H](C(=O)NNc2ccccc2)C(C)CC)CCc2[nH]c3c(C(F)(F)F)cccc3c2C1 (stereo partly drawn) [compound 244, (R)-3-{(S)-2-[3-(2-Fluoro-benzyl)-ureido]-3-methyl-pentanoylamino}-8-trifluoromethyl-2,3,4,9-tetrahydro-1H-carbazole-3-carboxylic acid [(S)-2-methyl-1-(N′-phenyl-hydrazinocarbonyl)-butyl]-amide] | 1096
CC[C@H](C)[C@H](NC(=O)Cc1ccccc1F)C(=O)N[C@]1(C(=O)N[C@H](c2nc(-c3ccccc3)cs2)[C@@H](C)CC)CCc2[nH]c3c(C(F)(F)F)cccc3c2C1 [compound 249, (R)-3-{(2S,3S)-2-[2-(2-Fluoro-phenyl)-acetylamino]-3-methyl-pentanoylamino}-8-trifluoromethyl-2,3,4,9-tetrahydro-1H-carbazole-3-carboxylic acid [(1S,2S)-2-methyl-1-(4-phenyl-thiazol-2-yl)-butyl]-amide] | 1580
CC[C@H](C)[C@H](NC(=O)Cc1ccccc1F)C(=O)N[C@]1(C(=O)N[C@H](c2nc(-c3ccc(OC)cc3)cs2)[C@@H](C)CC)CCc2[nH]c3c(C(F)(F)F)cccc3c2C1 [compound 250, (R)-3-{(2S,3S)-2-[2-(2-Fluoro-phenyl)-acetylamino]-3-methyl-pentanoylamino}-8-trifluoromethyl-2,3,4,9-tetrahydro-1H-carbazole-3-carboxylic acid {(1S,2S)-1-[4-(4-methoxy-phenyl)-thiazol-2-yl]-2-methyl-butyl}-ami] | 1491
CC[C@H](C)[C@H](NC(=O)Cc1ccccc1F)C(=O)N[C@]1(C(=O)N[C@H](c2nc(C(=O)O)cs2)[C@@H](C)CC)CCc2[nH]c3c(C(F)(F)F)cccc3c2C1 [compound 256, 2-{(1S,2S)-1-[((R)-3-{(2S,3S)-2-[2-(2-Fluoro-phenyl)-acetylamino]-3-methyl-pentanoylamino}-8-trifluoromethyl-2,3,4,9-tetrahydro-1H-carbazole-3-carbonyl)-amino]-2-methyl-butyl}-thiazole-4-carboxylic acid] | 1194
CCOC(=O)c1csc([C@@H](NC(=O)[C@@]2(NC(=O)[C@@H](NC(=O)NCc3ccccc3F)[C@@H](C)CC)CCc3[nH]c4c(C(F)(F)F)cccc4c3C2)[C@@H](C)CC)n1 [compound 258, 2-{(1S,2S)-1-[((R)-3-{(2S,3S)-2-[3-(2-Fluoro-benzyl)-ureido]-3-methyl-pentanoylamino}-8-trifluoromethyl-2,3,4,9-tetrahydro-1H-carbazole-3-carbonyl)-amino]-2-methyl-butyl}-thiazole-4-carboxylic acid ethyl ester] | 1215

The next lines start with the values.

Normalized microsomal stability [%] | Structure (SMILES)
452 | CCC(C)[C@H](NC(=O)Cc1ccccc1F)C(=O)N[C@]1(C(=O)N[C@H](C(=O)NN2CCOCC2)C(C)CC)CCc2[nH]c3c(C(F)(F)F)cccc3c2C1 (stereo partly drawn) [compound 219, (R)-3-{(S)-2-[2-(2-Fluoro-phenyl)-acetylamino]-3-methyl-pentanoylamino}-8-trifluoromethyl-2,3,4,9-tetrahydro-1H-carbazole-3-carboxylic acid [(S)-2-methyl-1-(morpholin-4-ylcarbamoyl)-butyl]-amide]
1322 | CCC(C)[C@H](NC(=O)Cc1ccccc1F)C(=O)N[C@]1(C(=O)N[C@H](C(=O)NNC(=O)c2ccccc2)C(C)CC)CCc2[nH]c3c(C(F)(F)F)cccc3c2C1 (stereo partly drawn) [compound 242, (R)-3-{(S)-2-[2-(2-Fluoro-phenyl)-acetylamino]-3-methyl-pentanoylamino}-8-trifluoromethyl-2,3,4,9-tetrahydro-1H-carbazole-3-carboxylic acid [(S)-1-(N′-benzoyl-hydrazinocarbonyl)-2-methyl-butyl]-amide]
